{"source": "ChEMBL document CHEMBL2074259", "about": "“Mouse reduced in osteosclerosis transporter functions as an organic anion transporter 3 and is localized at abluminal membrane of blood-brain barrier” (J Pharmacol Exp Ther, 2004)", "molecules": {"B1": {"name": "Organic anion transporter 3 (Mus musculus) (protein)", "chain": "MTFSEILDRVGSMGPFQYLHVTLLALPILGIANHNLLQIFTATTPDHHCRPPPNASLEPWVLPLGPNGKPEKCLRFVHLPNASLPNDTQGATEPCLDGWIYNSTRDTIVTEWDLVCGSNKLKEMAQSVFMAGILVGGPVFGELSDRFGRKPILTWSYLLLAASGSSAAFSPSLTVYMIFRFLCGCSISGISLSTIILNVEWVPTSTRAISSTTIGYCYTIGQFILPGLAYAVPQWRWLQLSVSAAFFIFSLLSWWVPESIRWLVLSGKFSKALKTLQRVATFNGKKEEGEKLTVEELKFNLQKDITSAKVKYGLSDLFRVSILRRVTFCLSLAWFATGFAYYSLAMGVEEFGVNIYILQIIFGGVDIPAKFITILSISYLGRRITQGFLLILAGVAILALIFVSSEMQLLRTALAVFGKGCLSGSFSCLFLYTSELYPTVLRQTGMGISNIWARVGSMIAPLVKITGELQPFIPNVIFGTMTLLGGSAAFFLLETLNRPLPETIEDIQDWYQQTKKTKQEPEAEKASQTIPLKTGGP"}}, "key": {"[1]": {"target": "T1, Organic anion transporter 3 (Mus musculus, UniProt O88909)", "T1 sequence (O88909 whole entry)": "B1 chain", "assay": "TP_TRANSPORTER: inhibition of benzylpenicillin uptake by Estradiol sulfate at a concentration of 5uM in Oat3-expressing oocyte cells", "type": "functional, cell-based", "design": "scale not given: the % may be the effect or the level left"}, "[2]": {"target": "T1, Organic anion transporter 3", "assay": "TP_TRANSPORTER: inhibition of benzylpenicillin uptake by 5-Hydroxyindole-3-acetic acid at a concentration of 1000uM in Oat3-expressing oocyte cells", "type": "functional, cell-based", "design": "scale not given: the % may be the effect or the level left"}, "[3]": {"target": "T1, Organic anion transporter 3", "assay": "(§1) TP_TRANSPORTER: uptake in Oat3-expressing oocyte cells", "type": "functional, cell-based"}, "[4]": {"target": "T1, Organic anion transporter 3", "assay": "TP_TRANSPORTER: inhibition of benzylpenicillin uptake by P-aminohippuric acid at a concentration of 1000uM in Oat3-expressing oocyte cells", "type": "functional, cell-based", "design": "scale not given: the % may be the effect or the level left"}, "[5]": {"target": "T2, Oat3 (organic anion transporter 3) (Mus musculus, UniProt O88909)", "T2 sequence (O88909 whole entry)": "B1 chain", "assay": "in vitro", "settings": "Oat3-expressing oocytes, probe benzylpenicillin"}, "[6]": {"target": "T1, Organic anion transporter 3", "assay": "TP_TRANSPORTER: inhibition of benzylpenicillin uptake by Prostaglandin E2 at a concentration of 1000uM in Oat3-expressing oocyte cells", "type": "functional, cell-based", "design": "scale not given: the % may be the effect or the level left"}, "[7]": {"target": "T2, Oat3 (organic anion transporter 3)", "assay": "TP_TRANSPORTER: inhibition of benzylpenicillin uptake by Estradiol glucuronide sulfate at a concentration of 5uM in Oat3-expressing oocyte cells", "type": "functional, cell-based", "design": "scale not given: the % may be the effect or the level left", "settings": "Oat3-expressing oocytes, probe benzylpenicillin; read-out: Activity"}, "[8]": {"target": "T1, Organic anion transporter 3", "assay": "TP_TRANSPORTER: inhibition of benzylpenicillin uptake by Estrone-3-sulfate at a concentration of 1000uM in Oat3-expressing oocyte cells", "type": "functional, cell-based", "design": "scale not given: the % may be the effect or the level left"}, "[9]": {"target": "T1, Organic anion transporter 3", "assay": "TP_TRANSPORTER: inhibition of benzylpenicillin uptake by Homovanillic acid at a concentration of 1000uM in Oat3-expressing oocyte cells", "type": "functional, cell-based", "design": "scale not given: the % may be the effect or the level left"}, "[10]": {"target": "T1, Organic anion transporter 3", "assay": "TP_TRANSPORTER: inhibition of benzylpenicillin uptake by Indomethacin at a concentration of 1000uM in Oat3-expressing oocyte cells", "type": "functional, cell-based", "design": "scale not given: the % may be the effect or the level left"}, "[11]": {"target": "T1, Organic anion transporter 3", "assay": "TP_TRANSPORTER: inhibition of benzylpenicillin uptake in Oat3-expressing oocyte cells", "type": "functional, cell-based", "design": "scale not given: the % may be the effect or the level left"}, "[12]": {"target": "T2, Oat3 (organic anion transporter 3)", "assay": "TP_TRANSPORTER: inhibition of benzylpenicillin uptake by Indoxyl sulfate at a concentration of 1000uM in Oat3-expressing oocyte cells", "type": "functional, cell-based", "design": "scale not given: the % may be the effect or the level left", "settings": "Oat3-expressing oocytes, probe benzylpenicillin; read-out: Activity"}, "[13]": {"target": "T2, Oat3 (organic anion transporter 3)", "assay": "TP_TRANSPORTER: inhibition of benzylpenicillin uptake by Triiodothyronine at a concentration of 1000uM in Oat3-expressing oocyte cells", "type": "functional, cell-based", "design": "scale not given: the % may be the effect or the level left", "settings": "Oat3-expressing oocytes, probe benzylpenicillin; read-out: Activity"}, "[14]": {"target": "T1, Organic anion transporter 3", "assay": "TP_TRANSPORTER: inhibition of benzylpenicillin uptake by Methotrexate at a concentration of 1000uM in Oat3-expressing oocyte cells", "type": "functional, cell-based", "design": "scale not given: the % may be the effect or the level left"}, "[15]": {"target": "T2, Oat3 (organic anion transporter 3)", "assay": "TP_TRANSPORTER: inhibition of benzylpenicillin uptake by Pravastatin at a concentration of 1000uM in Oat3-expressing oocyte cells", "type": "functional, cell-based", "design": "scale not given: the % may be the effect or the level left", "settings": "Oat3-expressing oocytes, probe benzylpenicillin; read-out: Activity"}, "[16]": {"target": "T1, Organic anion transporter 3", "assay": "TP_TRANSPORTER: inhibition of benzylpenicillin uptake by Probenecid at a concentration of 1000uM in Oat3-expressing oocyte cells", "type": "functional, cell-based", "design": "scale not given: the % may be the effect or the level left"}, "[17]": {"target": "T1, Organic anion transporter 3", "assay": "TP_TRANSPORTER: inhibition of benzylpenicillin uptake by Bromosulfophthalein at a concentration of 1000uM in Oat3-expressing oocyte cells", "type": "functional, cell-based", "design": "scale not given: the % may be the effect or the level left"}, "[18]": {"target": "T2, Oat3 (organic anion transporter 3)", "assay": "TP_TRANSPORTER: inhibition of benzylpenicillin uptake by Urate at a concentration of 1000uM in Oat3-expressing oocyte cells", "type": "functional, cell-based", "design": "scale not given: the % may be the effect or the level left", "settings": "Oat3-expressing oocytes, probe benzylpenicillin; read-out: Activity"}, "[19]": {"target": "T1, Organic anion transporter 3", "assay": "TP_TRANSPORTER: inhibition of benzylpenicillin uptake by 3'-Azido-3'-deoxythymidine at a concentration of 1000uM in Oat3-expressing oocyte cells", "type": "functional, cell-based", "design": "scale not given: the % may be the effect or the level left"}, "[20]": {"substrate": "CC1(C)S[C@@H]2[C@H](NC(=O)Cc3ccccc3)C(=O)N2[C@H]1C(=O)O", "assay": "as §1", "type": "functional, cell-based"}, "[21]": {"substrate": "C[C@]12CC[C@@H]3c4ccc(O)cc4CC[C@H]3[C@@H]1CC[C@@H]2O[C@@H]1O[C@H](C(=O)O)[C@@H](O)[C@H](O)[C@H]1O", "assay": "as §1", "type": "functional, cell-based"}}, "note": "Counter-ions that a name gives are not always drawn.", "data": [{"molecule": "C[C@]12CC[C@@H]3c4ccc(O)cc4CC[C@H]3[C@@H]1CC[C@H]2O.O=S(=O)(O)O", "values": [{"measurement": "Activity", "setting": "[1]", "result": 65.5, "unit": "%"}]}, {"molecule": "O=C(O)Cc1c[nH]c2ccc(O)cc12", "values": [{"measurement": "Activity", "setting": "[2]", "result": 21.7, "unit": "%"}]}, {"molecule": "Nc1ccc(C(=O)NCC(=O)O)cc1", "note": "[AMINOHIPPURIC ACID]", "values": [{"measurement": "Activity", "setting": "[3]", "result": "substrate []"}, {"measurement": "Activity", "setting": "[4]", "result": 14.2, "unit": "%"}]}, {"molecule": "CN/C(=N/CCSCc1nc[nH]c1C)NC#N", "note": "[CIMETIDINE]", "values": [{"measurement": "Activity", "setting": "[3]", "result": "substrate []"}, {"measurement": "activity at 1000 µM", "setting": "[5]", "result": 6.88, "unit": "%"}]}, {"molecule": "CCCCC[C@H](O)/C=C/[C@H]1[C@H](O)CC(=O)[C@@H]1C/C=C\\CCCC(=O)O", "note": "[DINOPROSTONE]", "values": [{"measurement": "Activity", "setting": "[6]", "result": 0.101, "unit": "%"}]}, {"molecule": "C[C@]12CC[C@@H]3c4ccc(OS(=O)(=O)O)cc4CC[C@H]3[C@@H]1CC[C@@H]2O[C@@H]1O[C@H](C(=O)O)[C@@H](O)[C@H](O)[C@H]1O", "note": "[ESTRADIOL GLUCURONIDE SULFATE]", "values": [{"measurement": "activity at 5 µM", "setting": "[7]", "result": 62.4, "unit": "%"}]}, {"molecule": "C[C@]12CC[C@@H]3c4ccc(OS(=O)(=O)O)cc4CC[C@H]3[C@@H]1CCC2=O", "note": "[ESTRONE SULFURIC ACID]", "values": [{"measurement": "Activity", "setting": "[3]", "result": "substrate []"}, {"measurement": "Activity", "setting": "[8]", "result": 11.4, "unit": "%"}]}, {"molecule": "O=C(O)CCCC(=O)O", "note": "[GLUTARATE]", "values": [{"measurement": "Activity", "setting": "[3]", "result": "substrate []"}]}, {"molecule": "COc1cc(CC(=O)O)ccc1O", "note": "[HOMOVANILLIC ACID]", "values": [{"measurement": "Activity", "setting": "[3]", "result": "substrate []"}, {"measurement": "Activity", "setting": "[9]", "result": 40.9, "unit": "%"}]}, {"molecule": "COc1ccc2c(c1)c(CC(=O)O)c(C)n2C(=O)c1ccc(Cl)cc1", "note": "[INDOMETHACIN]", "values": [{"measurement": "Activity", "setting": "[3]", "result": "substrate []"}, {"measurement": "Activity", "setting": "[10]", "result": 1.32, "unit": "%"}]}, {"molecule": "O=C(O)[C@H]1O[C@@H](Oc2c[nH]c3ccccc23)[C@H](O)[C@@H](O)[C@@H]1O", "note": "[INDOXYL GLUCURONIDE]", "values": [{"measurement": "Activity", "setting": "[11]", "result": 72.3, "unit": "%"}]}, {"molecule": "O=S(=O)(O)Oc1c[nH]c2ccccc12", "note": "[INDOXYL SULFATE]", "values": [{"measurement": "Activity", "setting": "[3]", "result": "substrate []"}, {"measurement": "activity at 1000 µM", "setting": "[12]", "result": 21.9, "unit": "%"}]}, {"molecule": "N[C@@H](Cc1cc(I)c(Oc2ccc(O)c(I)c2)c(I)c1)C(=O)O", "note": "[LIOTHYRONINE]", "values": [{"measurement": "activity at 1000 µM", "setting": "[13]", "result": 39.8, "unit": "%"}]}, {"molecule": "CN(Cc1cnc2nc(N)nc(N)c2n1)c1ccc(C(=O)N[C@@H](CCC(=O)O)C(=O)O)cc1", "note": "[METHOTREXATE]", "values": [{"measurement": "Activity", "setting": "[3]", "result": "substrate []"}, {"measurement": "Activity", "setting": "[14]", "result": 48.4, "unit": "%"}]}, {"molecule": "CC[C@H](C)C(=O)O[C@H]1C[C@H](O)C=C2C=C[C@H](C)[C@H](CC[C@@H](O)C[C@@H](O)CC(=O)O)[C@H]21", "note": "[PRAVASTATIN]", "values": [{"measurement": "activity at 1000 µM", "setting": "[15]", "result": 2.85, "unit": "%"}]}, {"molecule": "CCCN(CCC)S(=O)(=O)c1ccc(C(=O)O)cc1", "note": "[PROBENECID]", "values": [{"measurement": "Activity", "setting": "[16]", "result": 0.625, "unit": "%"}]}, {"molecule": "O=C(O)c1ccccc1O", "note": "[SALICYLIC ACID]", "values": [{"measurement": "Activity", "setting": "[3]", "result": "substrate []"}]}, {"molecule": "O=C1OC(c2ccc(O)c(S(=O)(=O)[O-])c2)(c2ccc(O)c(S(=O)(=O)[O-])c2)c2c(Br)c(Br)c(Br)c(Br)c21.[Na+].[Na+]", "note": "[SULFOBROMOPHTHALEIN SODIUM]", "values": [{"measurement": "Activity", "setting": "[17]", "result": 2.54, "unit": "%"}]}, {"molecule": "O=c1[nH]c(=O)c2[nH]c(=O)[nH]c2[nH]1", "note": "[URIC ACID]", "values": [{"measurement": "activity at 1000 µM", "setting": "[18]", "result": 19.9, "unit": "%"}]}, {"molecule": "Cc1cn([C@H]2C[C@H](N=[N+]=[N-])[C@@H](CO)O2)c(=O)[nH]c1=O", "note": "[ZIDOVUDINE]", "values": [{"measurement": "Activity", "setting": "[19]", "result": 5.13, "unit": "%"}]}, {"molecule": "B1", "values": [{"measurement": "Km", "setting": "[20]", "result": 40, "unit": "µM"}, {"measurement": "Km", "setting": "[21]", "result": 5.5, "unit": "µM"}]}]}
